From publication PMC6154976, “The potential HLA Class I-restricted epitopes derived from LeIF and TSA of Leishmania donovani evoke anti-leishmania CD8+ T lymphocyte response” (Scientific Reports, 2018)
Entries after “also recorded” stand apart in the source; their conditions may differ.

Assays:
[1] = target: HLA-A*0201 molecule on T2 cells (Homo sapiens, UniProt P04439, D140Y/D185E/D98H/E176V/E277Q/G131W/G231S/I119V/I121R/I166T/I218V/L300P/L318F/N151K/N90K/P208A/P217A/Q86G/Q94H/R138H/R169H/T345S); assay: Peptide-binding assay (HLA stabilization assay, T2 cell line); format: cell-based; conditions: 20 μg/mL peptide, 20 hours, FI more than 1 = strong binding, Fig. S2; for fluorescence index (FI) value: T2 cells 2 × 10^5/well, serum-free RPMI, 37 °C, FACS, PE anti-HLA-A 02 (BB7.2), triplicate
Description: The efficiency of the shortlisted epitopes to stabilize the HLA-A 02 allele was measured by HLA stabilization assay using TAP-deficient human cell line that express HLA-A2 (T2 cell line) according to our previously described methodology with certain modifications. Briefly, T2 cells (2 × 10^5/well) were cultured with 20 μg/mL of individual peptides in serum-free RPMI medium for 20 hours at 37 °C in 5% CO2. The HLA stabilization assay was performed in triplicate for each peptide. The tumor HLA A2 bound 10mer peptide was used as positive control. The expression of HLA-A 02 on T2 cells was measured by PE-conjugated mouse anti-human HLA-A 02 monoclonal antibody (clone: BB7.2; Pharmingen), the samples were acquired by FACS Calibur and analyzed by CellQuest software (BD Biosciences). The binding affinity of each peptide was measured by a fluorescence index: FI = (mean PE fluorescence with the given peptide−mean PE fluorescence without peptide)/(mean […] fluorescence without peptide). The epitope with a fluorescence index (FI) more than 1 was considered as strong binding affinity epitopes.

[2] = test system: PBMCs from HLA A2 negative VL treated subjects; assay: Intracellular IFN-γ from CD8+ T cells (FACS); format: cell-based, human; conditions: six HLA A2 negative subjects, overnight plus 6 h brefeldin-A
Description: To evaluate the ability of the selected epitopes to trigger the immune cells by CD8+ T cell dependent manner, PBMCs (1 × 10^6/ml) from five HLAA2 positive VL treated subjects were incubated for overnight in the presence or absence of peptide at 37 °C and 5% CO2. Additionally, six HLA A2 negative VL treated subjects were also considered for this study. Stimulation with SLA was run in parallel to all experiments as described previously. After overnight incubation followed by 6 h incubation with brefeldin-A (1 mg/ml), cells were harvested, washed with PBS, and stained with anti-CD3-PerCP (BD Biosciences) and anti-CD8-FITC(BD Biosciences) conjugated antibodies for 30 min at 4 °C. The cells were then washed with stain buffer, fixed and permeabilized Cytofix-Cytoperm buffer (BD Biosciences) for 20 minutes at 4 °C. The intracellular level of IFN-γ was stained with anti-IFN-γ PE-conjugated antibody (BD Biosciences) for 30 minutes and washed with perm wash buffer (BD Biosciences). A logical gate set using was used to measure the co-expression of intracellular CD8+ ve IFN-γ. At least 30 000 cells were acquired for each analysis, and the results are shown in percentage gated value (% gated).

Sequence	binding to / stabilization of HLA-A*0201 on T2 cells, in words [1]	fluorescence index (FI) value [1]	intracellular CD3+ ve CD8+ ve IFN-γ [2]
FIIDPNGMV [P8]	relatively weakly bound		
KVLTLFAEV [P5]	stabilized the HLA A2; also recorded: strongly bound	above 2	triggered the HLA A2-ve host immune cells by producing CD8+ IFN-γ; also recorded: triggered CD3+ ve CD8+ ve IFN-γ level; also recorded: enhanced CD3+ CD8+ IFN-γ
LLLAEPFPV [P4]	stabilized the HLA A2; also recorded: strongly bound	1.81	triggered the HLA A2-ve host immune cells by producing CD8+ IFN-γ
MLADKTKSI [P6]	relatively weakly bound		
RLLEAFQFV [P7]	stabilized the HLA A2; also recorded: strongly bound	above 2	triggered CD3+ ve CD8+ ve IFN-γ level; also recorded: enhanced CD3+ CD8+ IFN-γ
SLARRKLLL [P3]	relatively weakly bound		
SMDSEYAHL [P9]	relatively weakly bound		
TLDHLLVLL [P1]	stabilized the HLA A2; also recorded: strongly bound	above 2	triggered the HLA A2-ve host immune cells by producing CD8+ IFN-γ; also recorded: triggered CD3+ ve CD8+ ve IFN-γ level; also recorded: enhanced CD3+ CD8+ IFN-γ
VLLEKATIL [P2]	stabilized the HLA A2; also recorded: strongly bound	above 2	
